Tests used:
C57BL/6 mice = settings: chronic exposure (i.c.v.), low baseline aggressiveness (Lumley, Soc. Neurosci); cited from earlier work
individually housed mice = settings: cited from earlier work
SJL mice = experiment: social interaction test with a non-aggressive conspecific in long-term individually housed hyperaggressive mice (isolation-induced aggression); assay type: in vivo; settings: for mice that attacked: vehicle 8 of 8
Source text: It is well-established that housing in isolation for significant periods of time will enhance the natural tendency of cage resident mice to attack an “intruder” mouse placed in their home cage. The isolation model in mice is the most appropriate model for screening drugs for anti-aggression potential. We tested whether acute exposure to the NAALADase inhibitor [2-[(pentafluorophenylmethyl) hydroxyphosphinyl]methyl-pentanedioic acid, administered prior to a social interaction test, would inhibit aggressive behavior in SJL mice that had been individually housed for eight months. [2-[(pentafluorophenylmethyl) hydroxyphosphinyl]methyl-pentanedioic acid (30 mg/kg, i.p.) was administered 30 minutes prior to a social interaction test to pharmacologically naive male mice which had been selected and behaviorally shaped to be hyperaggressive, and had consistently shown markedly aggressive behaviors in prior interactions with intruder mice. Administration of [2-[(pentafluorophenylmethyl) hydroxyphosphinyl]methyl-pentanedioic acid (30 mg/kg, i.p.) inhibited aggression, indicated by greater latencies to display tail-rattling, attack and bite, and fewer tail-rattling responses to a non-aggressive conspecific, relative to vehicle. In addition, fewer mice that received [2-[(pentafluorophenylmethyl) hydroxyphosphinyl]methyl-pentanedioic acid (30 mg/kg) initiated attack, relative to those that received vehicle.
We hypothesized that similar to the effects of NMDA antagonists, NAALADase inhibition and therefore increased NAAG, would inhibit aggressiveness under conditions of high basal levels of aggressiveness. We administered the NAALADase inhibitor [2-[(pentafluorophenylmethyl) hydroxyphosphinyl]methyl-pentanedioic acid prior to a social interaction test in a novel cage and measured behavioral responses to a non-aggressive conspecific; a novel cage was used to lower the levels of aggressiveness. The paradigm used was adapted from File (reviewed in Crawley, 2000).
Principles of laboratory animal care (NIH publication No. 85-23, revised 1985) were followed. […] In addition, these mice had been used to socially defeat mice that were used as subjects in numerous other studies. These highly aggressive SJL had no previous drug exposure. At the end of 8 months of training, subjects weighed 30-37 grams and had attack latencies of less than 30 sec when exposed to an obx. During the social interaction test, two C57BL/6 male mice (30-33 g; Jackson Laboratories), which were screened for non-aggressiveness and unfamiliar to the subjects, were used as stimulus mice.
[2-[(pentafluorophenylmethyl) hydroxyphosphinyl]methyl-pentanedioic acid, MW 390.2 (3 mg/kg or 30 mg/kg in 50 mM Hepes in 0.9% saline; pH 7.2; Guilford Pharmaceuticals) or vehicle (50 mM Hepes in 0.9% saline; pH 7.2) was administered intraperitoneally (i.p.; 10 ml/kg) 30 min. prior to a 4 min. social interaction test. Subject mice were placed in a novel cage (48×27×20 cm) along with a non-aggressive male conspecific and tested under low illumination (red lights) during the dark phase of their cycle. Methods for various social interaction tests reviewed in Crawley et al. (2000). Tests were videotaped and behaviors were scored using a computer program (Hindsight, Scott Weiss, UK), by two observers blind to the treatment. Behavioral measures included 1) measures of aggressiveness or threat: attack, bite, chase or follow, grooming conspecific, tail rattling 2) measures of exploratory and locomotor activity: walking, rearing, digging, 3) measures of defensiveness: defensive posture (crouch, upright) and flight. Details on behavioral measurements may be found in Grant and McIntosh, 1963; Lumley et al., 2000; Crawley, 2000.
One-way analysis of variance was performed for each behavioral measure with drug dose as the independent factor. Data were further probed using Dunnet=s test.

mice = mice (McAllister, 1990); cited from earlier work

**Q.** With `O=C(O)CCC(CP(=O)(O)O)C(=O)O` (stereo not shown) [2-PMPA, 2-(phosphonomethyl)-pentanedioic acid] as the compound, how does the aggressiveness (C57BL/6 mice) read?
**A.** increase aggressiveness

**Q.** Which aggressiveness (individually housed mice; individually housed mice (Wilmot et al., 1987)) does the source give for `c1ccc(C2(N3CCCCC3)CCCCC2)cc1` [PCP, phencyclidine] here?
**A.** increased aggressiveness

**Q.** And the “number of mice that displayed attack” value (individually housed mice; individually housed mice)?
**A.** reduced the number of mice that displayed attack

**Q.** With `O=C(O)CCC(CP(=O)(O)Cc1c(F)c(F)c(F)c(F)c1F)C(=O)O` (stereo not shown) [[2-[(pentafluorophenylmethyl) hydroxyphosphinyl]methyl-pentanedioic acid] as the compound, how does the mice that attacked (SJL mice; 3 mg/kg) read?
**A.** 7 of 10

**Q.** And the latency to attack (SJL mice; 30 mg/kg i.p., 30 min before 4 min test, relative to vehicle, F (2, 26)=2.36)?
**A.** increased latencies

**Q.** And the latency to bite (SJL mice; 30 mg/kg i.p., 30 min before 4 min test, relative to vehicle, F (2, 26)=2.82)?
**A.** increased latencies

**Q.** And the “latency to display tail-rattling” value (SJL mice; 30 mg/kg i.p., 30 min before 4 min test, relative to vehicle, F (2, 26)=7.41)?
**A.** increased latencies

**Q.** What about the “number of tail-rattling responses” value (SJL mice; 30 mg/kg, relative to vehicle, F (2, 26)=3.66) of the same compound?
**A.** tended to display fewer tail-rattling responses

**Q.** And the mice that attacked (SJL mice; 30 mg/kg)?
**A.** 4 of 9

**Q.** What about the “percent of mice that attacked the conspecific” value (SJL mice; 30 mg/kg, vehicle 100%) of the same compound?
**A.** 44%

**Q.** And the defensive responses (SJL mice; 3 or 30 mg/kg i.p., few mice displayed any)?
**A.** no effect

**Q.** And the number of attacks (SJL mice; in mice displaying the behavior, 3 or 30 mg/kg i.p., F (2,18)=0.11)?
**A.** no effect

**Q.** And the number of bites (SJL mice; in mice displaying the behavior, 3 or 30 mg/kg i.p., F (2, 26)=0.31)?
**A.** no effect

**Q.** And the “number of attacks in the 4 of 9 treated mice that attacked” value (SJL mice; relative to vehicle-treated mice, not significant)?
**A.** tended to have more attacks

**Q.** What about the “tail rattling responses as stated in the discussion” value (SJL mice; relative to vehicle, dose not stated) of the same compound?
**A.** more tail rattling responses than vehicle

**Q.** With `C[C@]12N[C@H](Cc3ccccc31)c1ccccc12` [dizocilpine] as the compound, how does the aggression (mice) read?
**A.** increased aggression

Source: US20030162694A1, “Novel treatment for pathological aggression” (priority 2002, published 2003)
